Test systems include CCRF-CEM; PC-3; Hs-578T; HCT-116; CAKI-1; ACHN; HCC 2998; HOP-92; MCF7; T47D; DU-145; UO-31; BT-549; HCT-15; A498; UACC-257; NCI/ADR-RES; SF-539; K562; RXF 393.
Common to all, as to assay: DTP human tumour cell line panel, 48 h

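Briefly, cells in 96-well plates were exposed to five compound concentrations for 48 h, and endpoints were estimated by linear interpolation. Abbreviation: GI50, concentration required for 50% inhibition of growth.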 Active and inactive are the calls of the source. No stated cut-off is given here; in the data, active = GI50 up to about 1.1 µM and inactive = higher.

As a reminder, the GI50 is the concentration that inhibits growth by half.

For `C=CCN1C(=O)/C(=C/c2ccc(Cl)cc2)N=C1SC/C=C/C`, the GI50 is 39.8 µM (inactive) with CCRF-CEM; 31.4 µM (inactive) in the assay with PC-3; 37.7 µM (inactive) in the assay with Hs-578T; 17 µM (inactive) in the assay on HCT-116; 61.2 µM (inactive) in the assay with CAKI-1; 56.2 µM (inactive) with ACHN. In addition, the GI50 is 49.9 µM (inactive) in the assay on HCC 2998; 24.2 µM (inactive) in the assay on HOP-92; 26.6 µM (inactive) in the assay with MCF7; 21 µM (inactive) with T47D; 60.8 µM (inactive) in the assay with DU-145; 34.7 µM (inactive) in the assay with UO-31. Besides, the GI50 was 33.9 µM (inactive) in the assay with BT-549; 34.2 µM in the assay on HCT-15; 33.9 µM (inactive) with A498; 37.8 µM (inactive) with UACC-257; 35.2 µM (inactive) in the assay on NCI/ADR-RES; > 100 µM (inactive) in the assay with SF-539. Further, the GI50 in the assay on K562 was 25.5 µM (inactive); in the assay on RXF 393, 15.7 µM (inactive).

On to `CC(=O)NNc1nc(C)c(C(/C=C/c2ccccc2O)=N/NC(=O)c2ccncc2)s1`, for which the GI50 with CCRF-CEM, with PC-3, with Hs-578T, in the assay with HCT-116, in the assay with CAKI-1 and in the assay on ACHN was > 100 µM (inactive) throughout. Moreover, the GI50 in the assay on HCC 2998, in the assay on HOP-92, in the assay on MCF7, with T47D, in the assay with DU-145 and in the assay with UO-31 was > 100 µM (inactive) each time. The GI50 with BT-549 is > 100 µM (inactive); in the assay with HCT-15, > 100 µM; in the assay with A498, > 100 µM (inactive); with UACC-257, > 100 µM (inactive); with NCI/ADR-RES, > 100 µM (inactive); in the assay with SF-539, > 100 µM (inactive). In the assay on RXF 393, the GI50 was > 100 µM (inactive).

Turning to `CC(C)(C)C1=CC(=CC=C2C=CN(CCCCCCCCCCCO)C=C2)C=C(C(C)(C)C)C1=O`, the GI50 is 0.652 µM (active) in the assay with CCRF-CEM; 1.69 µM (inactive) in the assay with PC-3; 1.87 µM (inactive) with Hs-578T; 0.951 µM (active) with HCT-116; 2.48 µM (inactive) in the assay on CAKI-1; 2.19 µM (inactive) in the assay on ACHN. The concentration for 50% growth inhibition (GI50) in the assay with HCC 2998 was 0.838 µM (active); in the assay on HOP-92 it was 1.83 µM (inactive); with MCF7, 0.796 µM (active); in the assay with T47D, 0.498 µM (active); in the assay with DU-145, 2.88 µM (inactive); in the assay on UO-31, 1.76 µM (inactive). Moreover, the GI50 with BT-549 is 2.12 µM (inactive); in the assay on HCT-15, 2.6 µM; with A498 it was 3.01 µM (inactive); in the assay on UACC-257, 1.87 µM (inactive); in the assay with NCI/ADR-RES, 2.96 µM (inactive); in the assay with SF-539, 2.07 µM (inactive). Besides, the GI50 was 1.06 µM (active) with K562 and 0.9 µM (active) in the assay on RXF 393.

Consider `NC1=Nc2ccccc2Sc2nccn21`, for which the GI50 in the assay on CCRF-CEM was 27 µM (inactive); in the assay on PC-3, 22.6 µM (inactive); with Hs-578T, 25.3 µM (inactive); with HCT-116, 27.5 µM (inactive); in the assay on CAKI-1, 27.4 µM (inactive); in the assay on ACHN, 30 µM (inactive). For the same molecule, the GI50 is 21 µM (inactive) with HCC 2998; 15.1 µM (inactive) in the assay with HOP-92; 44.3 µM (inactive) in the assay on MCF7; 24.7 µM (inactive) in the assay with T47D; 37.7 µM (inactive) in the assay with DU-145; 23.9 µM (inactive) with UO-31. The GI50 was 54.3 µM (inactive) with BT-549; 25.2 µM with HCT-15; 28.2 µM (inactive) in the assay with A498; 31.8 µM (inactive) with UACC-257; 30.5 µM (inactive) in the assay with NCI/ADR-RES; 23.9 µM (inactive) in the assay with SF-539. In addition, the GI50 in the assay with K562 was 19.6 µM (inactive); in the assay on RXF 393, 25.8 µM (inactive).

On to `CC1=NC2=Nc3nc(C)cc[n+]3CN2C=C1`, for which the GI50 was > 100 µM (inactive) with PC-3; > 100 µM (inactive) in the assay with Hs-578T; 38.9 µM (inactive) in the assay on HCT-116; 0.144 µM (active) in the assay on CAKI-1; > 100 µM (inactive) in the assay with ACHN; 58.2 µM (inactive) in the assay on HCC 2998. Also, the GI50 was 95.7 µM (inactive) with HOP-92; > 100 µM (inactive) in the assay on MCF7; 70 µM (inactive) in the assay with T47D; > 100 µM (inactive) in the assay with DU-145; > 100 µM (inactive) in the assay with UO-31; 49.3 µM (inactive) in the assay with BT-549. Moreover, the GI50 is 88.5 µM with HCT-15; > 100 µM (inactive) in the assay on A498; > 100 µM (inactive) in the assay on UACC-257; > 100 µM (inactive) in the assay on NCI/ADR-RES; > 100 µM (inactive) in the assay with SF-539; > 100 µM (inactive) in the assay on RXF 393.

For `NS(=O)(=O)c1ccc(NCc2cccc3c(=O)c4ccc(Cl)cc4oc23)cc1`, the GI50 was 4.75 µM (inactive) in the assay with CCRF-CEM; 31 µM (inactive) in the assay with PC-3; 20 µM (inactive) in the assay with Hs-578T; 6.17 µM (inactive) in the assay on HCT-116; 41 µM (inactive) in the assay on CAKI-1; 28.4 µM (inactive) with ACHN. Further, the GI50 in the assay with HCC 2998 was > 82.4 µM (inactive); in the assay with HOP-92, 12.6 µM (inactive); with MCF7, 8.34 µM (inactive); in the assay on T47D, 81.3 µM (inactive); with DU-145, 30.3 µM (inactive); in the assay on UO-31, 25.5 µM (inactive). Also, the GI50 with BT-549 was 42.5 µM (inactive); in the assay with HCT-15 it was 11.5 µM; in the assay with A498 it was > 75.3 µM (inactive); with UACC-257 it was 60.4 µM (inactive); with NCI/ADR-RES it was 32.5 µM (inactive); in the assay with SF-539, 14.2 µM (inactive). Further, the GI50 in the assay on K562 is 12.5 µM (inactive); with RXF 393, 27.1 µM (inactive).

On to `COc1cc(Br)cc2nc(-c3cccs3)oc12`, for which the GI50 in the assay on CCRF-CEM is > 100 µM (inactive); in the assay on PC-3, > 100 µM (inactive); in the assay with Hs-578T, 31.3 µM (inactive); in the assay on HCT-116, > 70.6 µM (inactive); with CAKI-1 it was > 86.5 µM (inactive); in the assay with ACHN, > 83.8 µM (inactive). The GI50 in the assay on HCC 2998 was > 100 µM (inactive); with HOP-92, > 63.5 µM (inactive); in the assay with MCF7, 2.3 µM (inactive); with T47D, 6.15 µM (inactive); with DU-145, > 100 µM (inactive); in the assay with UO-31 it was > 54.7 µM (inactive). Besides, the GI50 in the assay with BT-549 is > 67.8 µM (inactive); with HCT-15 it was 16.2 µM; in the assay on A498, > 55.3 µM (inactive); in the assay on UACC-257, > 100 µM (inactive); in the assay with NCI/ADR-RES it was > 100 µM (inactive); with SF-539 it was 75.9 µM (inactive). In addition, the GI50 in the assay with K562 is > 100 µM (inactive); in the assay on RXF 393, 45.6 µM (inactive).

As to `CCNc1cc2oc(=O)cc(C(F)(F)F)c2cc1C`, the GI50 in the assay with PC-3, in the assay on Hs-578T, in the assay with HCT-116, in the assay on CAKI-1, in the assay on ACHN and with HCC 2998 was > 100 µM (inactive) each time. For the same molecule, the GI50 is 64.4 µM (inactive) in the assay with HOP-92; > 100 µM (inactive) with MCF7; > 100 µM (inactive) in the assay with T47D; > 100 µM (inactive) in the assay with DU-145; > 100 µM (inactive) with UO-31; > 100 µM (inactive) in the assay with BT-549. In addition, the GI50 with HCT-15 is > 100 µM; with A498 it was > 100 µM (inactive); with UACC-257, > 100 µM (inactive); with NCI/ADR-RES it was > 100 µM (inactive); with SF-539 it was > 100 µM (inactive); in the assay on K562, > 100 µM (inactive). For the same molecule, the GI50 in the assay with RXF 393 was > 100 µM (inactive).

In the case of `COc1cc2c(cc1OCCCNC(=O)c1cc3ccccc3[nH]1)N=C[C@@H]1CCCN1C2=O`, the GI50 was 0.193 µM (active) with CCRF-CEM; 0.358 µM (active) in the assay on PC-3; 0.23 µM (active) with Hs-578T; 0.24 µM (active) in the assay with HCT-116; 0.296 µM (active) in the assay with CAKI-1; 0.347 µM (active) in the assay on ACHN. The GI50 in the assay on HCC 2998 was 0.664 µM (active); with HOP-92 it was 7.43 µM (inactive); with MCF7, 0.258 µM (active); in the assay with T47D, 0.229 µM (active); with DU-145, 0.223 µM (active); in the assay on UO-31, 0.318 µM (active). For the same molecule, the GI50 in the assay with BT-549 is 0.0736 µM (active); in the assay with HCT-15, 0.897 µM; in the assay on A498, 0.0527 µM (active); in the assay on UACC-257, 0.448 µM (active); in the assay with NCI/ADR-RES, 2.04 µM (inactive); in the assay on SF-539, 0.24 µM (active). The GI50 with K562 was 0.243 µM (active); in the assay with RXF 393, 0.0966 µM (active).

In the case of `CCCCC[C@@H]1OCO[C@@]2(C)/C=C(C)\C=C/C(=O)O[C@H]([C@@H](C)[C@@H](O)[C@H](C)[C@@]3(O)C[C@@H](O[C@H]4C[C@@H](O)[C@H](O)[C@@H](C)O4)[C@H](C)[C@@H](C)O3)[C@@H](OC)/C=C\C=C(\C)C[C@@H]1[C@@H]2O` (stereo in doubt), the GI50 with CCRF-CEM is < 0.005 µM (active); with PC-3, < 0.005 µM (active); in the assay on Hs-578T it was 1.2 µM (inactive); in the assay with HCT-116 it was < 0.005 µM (active); with CAKI-1, < 0.005 µM (active); with ACHN, < 0.005 µM (active). In addition, the GI50 in the assay with HCC 2998 is < 0.005 µM (active); with HOP-92, < 0.005 µM (active); in the assay on MCF7, < 0.005 µM (active); with T47D, < 0.005 µM (active); in the assay on DU-145, < 0.005 µM (active); in the assay with BT-549, 0.5 µM (active). For the same molecule, the GI50 was 0.5 µM with HCT-15; < 0.005 µM (active) with A498; < 0.005 µM (active) in the assay on UACC-257; 0.5 µM (active) with NCI/ADR-RES; < 0.005 µM (active) in the assay on SF-539; < 0.005 µM (active) with K562. For the same molecule, the GI50 in the assay on RXF 393 was < 0.005 µM (active).

Source of the values: ChEMBL document CHEMBL1201862, “PubChem BioAssay data set” (2004).
